The test system of data set [1] is rat retinal cell line, E1A-NR.3. The note with it: co-treatments and delayed addition; reference (1); cited from earlier work.
Data set [2] has the same test system. Kind of data set: 3-aminopropanal neurotoxicity assay, LDH release, retinal cell cultures. The note with it: for % Neuroprotection (600 μM): compound 600 μM, 24-hour incubation with 400 μM 3-aminopropanal in retinal ganglion cells. It is filed as cell-based. The procedure:
The rat retinal cell line, E1A-NR.3, was grown in DMEM, containing 10% FBS, in 75 cm2 flasks. […] Media was collected and assayed for LDH using the Roche assay kit. Rabbit muscle LDH was used for the standard curve. Drug treatments of aldehyde sequestering agents were as co-treatments or delayed administration of about 0.5 to about 3 hours. All drugs were dissolved in PBS.
(Release of lactate dehydrogenase indicates damage to the cell membrane.)

Data set [3] deals with Male Sprague Dawley rats. Kind of data set: Trimethyltin (TMT) model, KCl-evoked glutamate release from hippocampal slices. In kind it is in vivo, rat. Particulars: AK-10 25 mg/kg, sc daily for 17 days, starting 24 hours after TMT 8 mg/kg, FIG. 3. On the procedure:
Male Sprague Dawley rats (200 g; Harlan) were administered […], sc trimethyltin (TMT) and housed individually as a result of the aggressive behavior induced by the neurotoxicant. The day following the TMT treatment, rats were started on a once daily dosing for 17 days with vehicle or AK-10 (25 mg/kg, sc) in PBS. Rats were decapitated on day 19 and the hippocampi isolated and placed in chilled Hanks Balanced Salt Solution containing 20 mM HEPES (HBSS-HEPES, 4° C.) for release experiments.
Chilled tissues were cut into 300 μm slices. A single slice was incubated in 2 ml of HBSS-HEPES in 12-well culture plates at 37° C. for 30 min. The media was discarded and the slice incubated for 2-10 min periods, each with fresh media. Next, the slices were incubated for 5 min after which the media was isolated for amino acid analyses (Pre-sample), followed by a 5 min incubation in which 50 mM KCl was added to evoke neurotransmitter release from the slices (KCl sample). Next, a final 5 min incubation in HBSS-HEPES was collected (Post sample). […]
For the GC-MS analysis of glutamate, an Agilent bench-top GC-MSD (HP6890/MSD5973) system was autotuned (41, 267 and 599) under PCI conditions with methane as the reagent gas. […] The [MH]+ ions that were monitored were 332 and 338 for endogenous GABA and its internal standard, and 490 and 495 for endogenous glutamate and its internal standard. […]

For data set [4], the system named is Methemoglobin. Kind of data set: Methemoglobinemia in the rat. In kind it is in vivo. Particulars: for Methemoglobin (%): 50 mg/kg, sc, 1 hr. From the text: Hydroxylamines are efficacious aldehyde sequestering agents but also may induce methemaglobinemia. Methemoglobinemia is the condition caused by the oxidation of hemoglobin into methemoglobin or a deficiency in the ability of the body to reduce methemoglobin to hemoglobin.
Table 2 sets forth a comparison of the percentage of hemoglobin that is in the form of methemoglobin under control conditions, in the presence of aldehyde sequestering agent, N-enzylhydroxylamine (NBHA) and the hydroxamic acid, AK-10.

This is an account of results in US20140045943A1, “Hydroxamic Acid Derivatives, Preparation and Therapeutic Uses Thereof” (Naurex, Inc., priority 2008, published 2014).

With `CC(S)C(=O)NCC(=O)O` (centres unmarked) [N-(2-mercaptopropionyl)-glycine], the “protection of retinal cells from 3-aminopropanal toxicity” value (from here on “protection of retinal cells”) in data set [1] is given as “active”.

Regarding `CC(C)C(N)CC(=O)NO` (centres unmarked) [AK-26, 3-amino-N-hydroxy-4-methylpentamide], the “% Neuroprotection (600 μM)” value in data set [2] worked out at 58%.

For `ONC1CCCCC1` [cyclohexylhydroxylamine], the “protection of retinal cells” value in data set [1] is on record as “protected retinal cells”. As to `O=C1O[C@H]([C@@H](O)CO)C(O)=C1O` [ascorbic acid, reference compound], the “protection in the rat trimethyltin model of CA3 glutamatergic cell death (KCl-evoked glutamate release as index of CA3 neuronal loss)” value in data set [3] is recorded as “not”. On to `CC(N)C(=O)NO` (centres unmarked) [AK-27, 2-amino-N-hydroxypropanamide], for which the “% Neuroprotection (600 μM)” value in data set [2] is 6%. The melting point is the temperature of the solid-liquid transition. In the case of `CC(=O)NC(CC(C)C)C(=O)NO` (centres unmarked) [AK-12, 2-acetoamido-N-hydroxy-4-methylpentamide], the melting point was in the range of 47 to 49 °C. For the same compound, the “% Neuroprotection (600 μM)” value in data set [2] is 10%. Consider `CC(C)(C)NO` [t-butylhydroxylamine], for which, in data set [1], the “protection of retinal cells” value is given as “protected retinal cells”. With `ONCc1ccccc1` [NBHA, N-benzylhydroxylamine, reference compound], in data set [1], the “protection of retinal cells” value is listed as “protected retinal cells”. The “Methemoglobin (%)” value in data set [4] is reported as 22.6 ± 3.1%. For the compound `CCC(C)C(N)C(=O)NO` (centres unmarked) [AK-29, 2-amino-N-hydroxy-3-methylpentamide], the “% Neuroprotection (600 μM)” value in data set [2] was determined as 4%. Same read-out and setting: the value for `CCCC(N)C(=O)NO` (centres unmarked) [AK-25, 2-amino-N-hydroxypentamide] was 28%; that for `CCC(N)C(=O)NO` (centres unmarked) [AK-28, 2-amino-N-hydroxybutanamide] was 39%.

With `CC(C)CC(N)C(=O)NO` (centres unmarked) [AK-10, 2-amino-N-hydroxy-4-methylpentamide], in data set [2] (300 μM AK-10, delayed co-treatment 0.5 to 3 hours, 400 μM 3-AP, FIG. 2), the “delay of treatment after 3-AP still giving reduced 24-hour LDH levels” value is “at least 3 hours”. Moreover, the “activity in the model of aldehyde-induced cell death” value in data set [2] (Table 1, FIG. 1, FIG. 2) was “most efficacious analog”. In data set [2] (co-treatment, 150 μM, 300 μM and 600 μM AK-10 with 400 μM 3-AP, FIG. 1), the “24-hour LDH level versus cells exposed to 3-AP alone” value is “significantly reduce”. The “% Neuroprotection (600 μM)” value in data set [2] is listed as 100%. Also, in data set [3], the “protection in the rat trimethyltin model of CA3 glutamatergic cell death (KCl-evoked glutamate release as index of CA3 neuronal loss)” value was “prevention of TMT neurotoxicity”. Further, the “Methemoglobin (%)” value in data set [4] came out at 2.2 ± 0.3%. In addition, the methemoglobinemia result in data set [4] (N-benzylhydroxylamine as positive control) is on record as “lack of methemoglobinemia”.
